Data as given in patent US8778923B2, “GLP-1 receptor modulators” (Receptos, Inc., priority 2011, dated 2014).

Molecular target: T1, GLP-1R (Homo sapiens, UniProt P43220)
T1 construct: host or cells: CRE-bla CHO-K1
Assay: EC20 GLP-1(9-36) PAM cAMP assay: dose response of compound in the presence of fixed concentration of GLP-1(9-36)
Type: cell-based
Details: GLP-1R CRE-bla CHO-K1 cells, compound dose response in presence of fixed concentration of GLP-1(9-36)
Method in brief: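 GLP-1R CRE-bla CHO-K1 cells in HBSS/10 mM Hepes/0.1% BSA pH 7.4 with IBMX got a 12-point compound dose response plus fixed EC20 GLP-1(9-36), 30 min at 37 °C. cAMP measured by HitHunter luminescence against a standard curve; EC50 and Emax by non-linear regression.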

T1 sequence (P43220 24-463): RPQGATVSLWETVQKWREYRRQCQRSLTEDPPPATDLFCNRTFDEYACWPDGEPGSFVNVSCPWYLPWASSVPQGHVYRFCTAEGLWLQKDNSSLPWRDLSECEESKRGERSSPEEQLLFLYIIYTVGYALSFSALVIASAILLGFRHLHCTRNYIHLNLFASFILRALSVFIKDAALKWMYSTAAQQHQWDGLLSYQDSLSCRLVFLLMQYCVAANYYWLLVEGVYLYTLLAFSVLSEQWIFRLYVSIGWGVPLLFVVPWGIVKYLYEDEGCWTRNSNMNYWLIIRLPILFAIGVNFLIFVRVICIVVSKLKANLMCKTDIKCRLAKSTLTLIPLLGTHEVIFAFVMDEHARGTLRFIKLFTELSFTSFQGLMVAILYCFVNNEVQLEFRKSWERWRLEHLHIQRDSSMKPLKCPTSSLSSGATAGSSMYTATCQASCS
T1 sequence (P01275 100-127 partner limits assumed): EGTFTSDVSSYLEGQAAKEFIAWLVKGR

Compound: CCCCCCCOc1ccc(-c2cnc(-c3ccc(C[C@H](NC(=O)c4ccc(C(C)(C)C)cc4)C(=O)NCC(=O)O)cc3)nc2)cc1 [Compound 297, (S)-(2-(4-(tert-butyl)benzamido)-3-(4-(5-(4-(heptyloxy)phenyl)pyrimidin-2-yl)phenyl)propanoyl)glycine]
- EC50: < 800 nM

Compound: CC(C)(C)c1ccc(C(=O)N[C@@H](Cc2ccc(-c3noc(-c4ccc(N5CCCCC5)cc4)n3)cc2)C(=O)NCC(=O)O)cc1 [Compound 68]
- EC50: 2500 to 5000 nM

Compound: CCCCCCCOc1ccc(-c2cnc(-c3ccc(C[C@H](NC(=O)c4ccc(C(C)(C)C)s4)C(=O)N[C@@H](Cc4cnc[nH]4)C(=O)O)cc3)nc2)cc1 [Compound 332]
- EC50: 800 to 2500 nM

Compound: CCCCCCCOc1ccc(-c2cnc(-c3ccc(C[C@H](NC(=O)c4ccc(C(C)C)cc4)C(=O)N[C@H](Cc4cnc[nH]4)C(=O)O)cc3)nc2)cc1 [Compound 316]
- EC50: < 800 nM

Compound: CCCCCCCOc1ccc(-c2cnc(-c3ccc(C[C@H](NC(=O)c4ccc(CC)o4)C(=O)O)cc3)nc2)cc1 [Compound 138]
- EC50: 800 to 2500 nM

Compound: CCCCCCCOc1ccc(-c2cnc(-c3ccc(C[C@H](NC(=O)c4ccc(C(C)(C)C)cc4OC)C(=O)O)cc3)nc2)cc1 [Compound 106]
- EC50: 800 to 2500 nM

Compound: CC(C)Oc1ccc(C(=O)N[C@@H](Cc2ccc(-c3ncc(-c4ccc(C(C)(C)C)cc4)cn3)cc2)C(=O)O)cc1 [Compound 162]
- EC50: 800 to 2500 nM

Compound: CCCCCCCOc1ccc(-c2cnc(-c3ccc(C[C@H](NC(=O)c4ccc(C(C)C)s4)C(=O)O)cc3)nc2)cc1 [Compound 152]
- EC50: 800 to 2500 nM

Compound: CC(C)(C)c1ccc(-c2cnc(-c3ccc(C[C@H](NC(=O)c4ccc(C(C)(C)C)s4)C(=O)N[C@H](Cc4cnc[nH]4)C(=O)O)cc3)nc2)cc1 [Compound 356]
- EC50: 800 to 2500 nM

Compound: CC(C)(C)c1ccc(C(=O)N[C@@H](Cc2ccc(-c3ncc(-c4ccc(N5CCCCC5)cc4)cn3)cc2)C(=O)O)cc1 [Compound 194]
- EC50: 800 to 2500 nM

Compound: CCCCCCCOc1ccc(-c2cnc(-c3ccc(C[C@H](NC(=O)c4ccc(C(C)(C)C)s4)C(=O)NC(C)(C)CC(=O)O)cc3)nc2)cc1 [Compound 335]
- EC50: 800 to 2500 nM

Compound: CC(C)S(=O)(=O)c1ccc(C(=O)N[C@@H](Cc2ccc(-c3ncc(-c4ccc(C(C)(C)C)cc4)cn3)cc2)C(=O)O)cc1 [Compound 181]
- EC50: 800 to 2500 nM

Compound: CCCCCCCOc1ccc(-c2cnc(-c3ccc(C[C@H](NC(=O)c4ccc(CCC)s4)C(=O)O)cc3)nc2)cc1 [Compound 147]
- EC50: 2500 to 5000 nM

Compound: CCCCCCCOc1ccc(-n2cnc(-c3ccc(C[C@H](NC(=O)c4ccc(C(C)(C)C)cc4)C(=O)O)cc3)c2)cc1 [Compound 287, (S)-2-(4-(tert-butyl)benzamido)-3-(4-(1-(4-(heptyloxy)phenyl)-1H-imidazol-4-yl)phenyl)propanoic acid]
- EC50: 5000 to 10000 nM

Compound: CCCCCCCOc1ccc(-c2cnc(-c3ccc(C[C@H](NC(=O)c4cnn(C(C)(C)C)c4)C(=O)O)cc3)nc2)cc1 [Compound 143]
- EC50: < 800 nM

Compound: CCCCCCCOc1ccc(-c2cnc(-c3ccc(C[C@H](NC(=O)c4ccc(OC)c(C)c4)C(=O)O)cc3)nc2)cc1 [Compound 118]
- EC50: < 800 nM

Compound: CCCCCCCOc1ccc(C2CCN(c3ccc(C[C@H](NC(=O)c4ccc(C(C)(C)C)cc4)C(=O)O)cc3)C2)cc1 (some centres unmarked) [Compound 265]
- EC50: 5000 to 10000 nM

Compound: CCCCCCCOc1ccc(-c2cnc(-c3ccc(C[C@H](NC(=O)c4ccc(C(C)C)cc4)C(=O)N[C@@H](CCCCN)C(=O)O)cc3)nc2)cc1 [Compound 310]
- EC50: < 800 nM

Compound: CCCCCCCOc1ccc(-c2cnc(-c3ccc(C[C@H](NC(=O)c4ccc(C(C)(C)C)cc4)C(=O)NCCCC(=O)O)cc3)nc2)cc1 [Compound 301]
- EC50: 800 to 2500 nM

Compound: CCCCCCCOc1ccc(-c2cnc(-c3ccc(C[C@H](NC(=O)c4ccc(C(C)(C)C)s4)C(=O)NC(CN4CCCC4)C(=O)O)cc3)nc2)cc1 (some centres unmarked) [Compound 338]
- EC50: 800 to 2500 nM

Compound: CCCCCCCOc1ccc(-c2cnc(-c3ccc(C[C@H](NC(=O)c4cnc(C(C)C)s4)C(=O)O)cc3)nc2)cc1 [Compound 148]
- EC50: 800 to 2500 nM

Compound: CCCCCCCOc1ccc(-c2cnc(-c3ccc(C[C@H](NC(=O)c4ccc(OC)cc4F)C(=O)O)cc3)nc2)cc1 [Compound 109]
- EC50: 800 to 2500 nM

Compound: CCSc1ccc(-c2nc(-c3ccc(C[C@H](NC(=O)c4ccc(C(C)(C)C)cc4)C(=O)O)cc3)no2)cc1 [Compound 42]
- EC50: 2500 to 5000 nM

Compound: CC(C)Cc1ccc(-c2cnc(-c3ccc(C[C@H](NC(=O)c4ccc(C(C)(C)C)s4)C(=O)O)cc3)nc2)cc1 [Compound 243]
- EC50: 800 to 2500 nM

Compound: CC(C)(C)c1ccc(-c2cnc(-c3ccc(C[C@H](NC(=O)c4ccc(OC(F)(F)F)cc4)C(=O)O)cc3)nc2)cc1 [Compound 173]
- EC50: 800 to 2500 nM

Compound: CCCCCCCOc1ccc(-c2cnc(-c3ccc(C[C@H](NC(=O)c4cc(C(C)C)no4)C(=O)O)cc3)nc2)cc1 [Compound 130]
- EC50: < 800 nM

Compound: CC(C)c1ncc(C(=O)N[C@@H](Cc2ccc(-c3ncc(-c4ccc(C(C)(C)C)cc4)cn3)cc2)C(=O)O)s1 [Compound 180]
- EC50: < 800 nM

Compound: CC(C)(C)c1ccc(C(=O)N[C@@H](Cc2ccc(-c3noc(-c4ccc5ccccc5c4)n3)cc2)C(=O)O)cc1 [Compound 60]
- EC50: 2500 to 5000 nM

Compound: CCCCCCCCCCCCCCOc1ccc(-c2cnc(-c3ccc(C[C@H](NC(=O)c4ccc(C(C)(C)C)s4)C(=O)O)cc3)nc2)cc1 [Compound 251]
- EC50: 5000 to 10000 nM

Compound: CCCCCCCOc1ccc(-c2cnc(-c3ccc(C[C@H](NC(=O)c4ccc(C(C)(C)C)cc4)C(=O)O)cc3)nn2)cc1 [Compound 274]
- EC50: 800 to 2500 nM

Compound: Cn1ccc2cc(-c3nc(-c4ccc(C[C@H](NC(=O)c5ccc(C(C)(C)C)cc5)C(=O)O)cc4)no3)ccc21 [Compound 50]
- EC50: 2500 to 5000 nM

Compound: CC(C)Cc1ccc(C(=O)N[C@@H](Cc2ccc(-c3ncc(-c4ccc(C(C)(C)C)cc4)cn3)cc2)C(=O)O)cc1 [Compound 163]
- EC50: 800 to 2500 nM

Compound: CSc1ccc(-c2nc(-c3ccc(C[C@H](NC(=O)c4ccc(C(C)(C)C)cc4)C(=O)O)cc3)no2)cc1 [Compound 40]
- EC50: 2500 to 5000 nM

Compound: CCCCCCCOc1ccc(-c2cnc(-c3ccc(C[C@@H](NC(=O)c4ccc(C(C)(C)C)s4)C(=O)NCC(=O)O)cc3)nc2)cc1 [Compound 376]
- EC50: 800 to 2500 nM

Compound: CC(C)(C)c1ccc(C(=O)N[C@@H](Cc2ccc(-c3ncc(-c4cccc(N5CCCCC5)c4)cn3)cc2)C(=O)O)cc1 [Compound 216]
- EC50: 2500 to 5000 nM

Compound: CCCCCCOc1ccc(-c2cnc(-c3ccc(C[C@H](NC(=O)c4ccc(C(C)(C)C)s4)C(=O)O)cc3)nc2)cc1 [Compound 239]
- EC50: 800 to 2500 nM

Compound: COc1ccc(-c2ccc(-c3nc(-c4ccc(C[C@H](NC(=O)c5ccc(C(C)(C)C)cc5)C(=O)O)cc4)no3)cc2)cc1 [Compound 15]
- EC50: 2500 to 5000 nM

Compound: CC(C)(C)c1ccc(C(=O)N[C@@H](Cc2ccc(-c3ncc(-c4ccc5c(c4)CCCN5)cn3)cc2)C(=O)O)cc1 [Compound 236]
- EC50: 5000 to 10000 nM

Compound: CSCC[C@H](NC(=O)[C@H](Cc1ccc(-c2ncc(-c3ccc(C(C)(C)C)cc3)cn2)cc1)NC(=O)c1ccc(C(C)(C)C)s1)C(=O)O [Compound 367]
- EC50: 800 to 2500 nM

Compound: CCCCCCCOc1ccc(-c2cnc(-c3ccc(C[C@H](NC(=O)c4cc5ccc(C)cc5s4)C(=O)O)cc3)nc2)cc1 [Compound 157]
- EC50: 800 to 2500 nM

Compound: CCCCCCCOc1ccc(-c2nc(-c3ccc(C[C@H](NC(=O)c4ccc(C(C)(C)C)cc4)C(=O)O)cc3)no2)cc1 [Compound 2, (S)-2-(4-(tert-butyl)benzamido)-3-(4-(5-(4-(heptyloxy)phenyl)-1,2,4-oxadiazol-3-yl)phenyl)propanoic acid]
- EC50: 2500 to 5000 nM
